The record followed here is patent EP1992637A1, “1-Aminocyclopentane-1,3,4- tricarboxylic acids derivatives” (priority 2007, dated 2008).

For one series, the system named is haldol-induced catalepsy. The series can be described thus: Haldol-induced catalepsy model of Parkinson's disease, bar test. In kind it is in vivo. As to conditions: mice. The method, then: The compounds of the invention were evaluated in a model of Parkinson's disease, the haldol-induced catalepsy model in mice. Catalepsy was assessed using the bar test in mice submitted to acute administration of the dopamine D2 receptor antagonist haloperidol (1mg/kg, intraperitoneally or ip). Mice (male RjOrl: Swiss mice, weighing 30 - 35 g at the beginning of the experiment) placed in group of 5 in Plexiglas cages, were injected with haloperidol (1 mg/kg ip). […] The catalepsy response of one mouse was measured as the time the animal maintained an imposed posture with both forelimbs placed on a horizontal 0.9cm-diameter wire bar suspended 4cm above a platform. The end point of catalepsy was considered to occur when both forelimbs were removed from the bar, the mouse climbed onto the bar or if the animal moved its head in an exploratory manner. A cutoff time of 180 seconds was applied. The degree of catalepsy was scored 60 minutes after haloperidol administration and continued at 30 or 60 minutes intervals for a total of 240-300 minutes. Between measurements, the animals were returned to their home cages. This procedure was adapted from the literature: (e.g. Pires et al., Braz J Med and Biol Res 38, 1867-1872, 2005; Shiozaki et al., Psychopharmacology 147, 90-95, 1999). Parent compound and corresponding vehicle, given either intraperitoneally (ip) or orally (po), were administered 30 minutes after haldol administration. Prodrugs and corresponding vehicle were injected 4h before haldol administration. Prodrug dose is expressed in equivalent of parent compound.
Data analysis: the figures 2 and 3 show the mean time of latency spent on the bar for each group of animals. At each time-point, the anti-cataleptic effects of parent compound and prodrugs were compared to vehicle-treated groups using 1-factor ANOVA test followed by the Dunnett's test. Datapoints marked with "*" in figures 3 or 4 indicates p<0.05; "**" indicates p<0.01.

Series [1] can be described thus: In vivo pharmacokinetic evaluation (ACPT-I in plasma, LC/MS/MS). Particulars: rat, po, 30 mg/kg.
Setting [2] is: 100mg/kg orally (dose in equivalent of parent compound), given 4h before haldol (1 mg/kg ip).

Usually bioavailability stands for the share of a dose that reaches the circulation, judged against a reference dose that is usually intravenous. Lower therefore signals little systemic uptake. Consider `N[C@@]1(C(=O)O)C[C@H](C(=O)O)[C@H](C(=O)O)C1` [ACPT-I, (1S, 3R, 4S) -1-aminocyclopentane-1,3,4-tricarboxylic acid], for which the anticataleptic activity result was “significantly reduced catalepsy” with haldol-induced catalepsy (30mg/kg ip, given 30 minutes after haldol (1 mg/kg ip)) and “no anticataleptic activity” with haldol-induced catalepsy (100mg/kg oral administration, given 30 minutes after haldol (1 mg/kg ip)). Also, the bioavailability in series [1] turned out to be 1.14%.

For the compound `CC(C)C[C@H](N)C(=O)N[C@@]1(C(=O)O)C[C@H](C(=O)O)[C@H](C(=O)O)C1` [Example 1, (1S, 3R, 4S)-1-{[(2'S)-2'-amino-4'-methylpentanoyl]amino}cyclopentane-1,3,4-tricarboxylic acid], in the series on haldol-induced catalepsy (setting [2]), the anticataleptic activity entry is listed as “significantly reduced the haldol-induced cataleptic response”.

As for `C[C@H](N)C(=O)N[C@@]1(C(=O)O)C[C@H](C(=O)O)[C@H](C(=O)O)C1` [Example 3, (1S, 3R, 4S)-1-{[(2'S)-'2-aminopropanoyl]amino}cyclopentane-1,3,4-tricarboxylic acid], the anticataleptic activity entry with haldol-induced catalepsy (setting [2]) is given as “significantly reduced the haldol-induced cataleptic response”.
